The subject of test [1] is sodium selenite-induced New Zealand rabbit cataract model. Kind of test: Pharmacodynamic study on sodium selenite-induced New Zealand rabbit cataract model (slit lamp lens opacity grading). It counts as in vivo. Conditions: 1.5% (w/w) eye drops; for Number of lenses with lens opacity grade III: Grade III: translucent lens nucleus; for Number of lenses with lens opacity grade IV: Grade IV: opacity of lens nucleus not involving cortex; for Effect compared with the core fragment compound c (Gc) group / Effect compared with the core fragment compound d (Gd) group / Effect compared with the model group (MG): chi-square test, p<0.05; for Therapeutic effect on the sodium selenite-induced cataract model: conclusion; for Number of lenses with lens opacity grade I: Grade I: vacuoles in periphery or anterior cortex of lens; for Number of lenses with lens opacity grade II: Grade II: slightly increased density of lens nucleus. The procedure: Neonatal New Zealand rabbits were P7 days old in ordinary grade, and 5 baby rabbits per litter were breastfed with one mother rabbit.
The young rabbits were randomly divided into 6 groups with 5 rabbits in each group. • 1) Normal control group (CG): Normal feeding. • 2) Disease model group (MG): At day P10, young rabbits were injected subcutaneously with sodium selenite solution (in normal saline) at 20 μmol/kg body weight. After day P15, normal saline eye drops were dripped into the left eye 3 times a day for 30 consecutive days. • 3) Compound 1 group (group 1, G1): At day P10, young rabbits were injected subcutaneously with sodium selenite solution (in normal saline) at 20 μmol/kg body weight. After day P15, 1.5% (w/w) compound 1 eye drops were dripped into the left eye 3 times a day for 30 consecutive days. • 4) Compound 2 group (group 2, G2): At day P10, young rabbits were injected subcutaneously with sodium selenite solution (in normal saline) at 20 μmol/kg body weight of. After day P15, 1.5% (w/w) compound 2 eye drops were dripped into the left eye 3 times a day for 30 consecutive days. • 5) Compound c group (group c, Gc): At day P10, young rabbits were injected subcutaneously with sodium selenite solution (in normal saline) at 20 μmol/kg body weight. After day P15, 1.5% (w/w) compound c eye drops were dripped into the left eye 3 times a day for 30 consecutive days. • 6) 3,3′-dithiodipropionic acid group (group d, Gd): At day P10, young rabbits were injected subcutaneously with sodium selenite solution (in normal saline) at 20 μmol/kg body weight. After day P15, 1.5% (w/w) 3,3′-dithiodipropionic acid eye drops were dripped into the left eye 3 times a day for 30 consecutive days.
Slit lamp observation: Slit lamp observation was performed on each group of sodium selenite-induced neonatal New Zealand rabbits before the administration, and 7 days, 14 days, and 30 days after the administration respectively, and the degree of lens opacity was graded to determine the therapeutic effect. Lens opacity grading standard [Hiraoka T, Clark J I. Inhibition of lens opacification during the early stages of cataract formation[J].

Another test relates to mice presbyopia model. The test can be described thus: Pharmacodynamic study on mice presbyopia model (lens thickness deformation under fixed pressure). It counts as in vivo, Mice (C57BL/6J). The settings on record: 1.5% (w/w) eye drops; for Lens thickness (deformation): 8 months old C57BL/6J mice, left eye, 3 times a day, 45 consecutive days, micrometer screw after fixed pressure, 5 lenses; for Therapeutic effect on elastic recovery of aged mice: conclusion, 45 days. From the text: Mice (8 months old, C57BL/6J), normal grade.
The mice were randomly divided into 4 groups with 5 mice in each group. • 1) Model group (MG): normal saline eye drops were dripped into the left eye for 45 consecutive days, 3 times a day. • 2) Compound 1 Group (group 1, G1): 1.5% (w/w) compound 1 eye drops were dripped into the left eye for 45 consecutive days, 3 times a day. • 3) Compound 2 Group (group 2, G2): 1.5% (w/w) compound 2 eye drops were dripped into the left eye for 45 consecutive days, 3 times a day. • 4) 3,3′-dithiodipropionic acid group (group d, Gd): 1.5% (w/w) 3,3′-dithiodipropionic acid eye drops were dripped into the left eye for 45 consecutive days, 3 times a day.
Measurement of lens thickness deformation: After 45 consecutive days of eye dripping, mice were euthanized with carbon dioxide and flushed with saline. Lens thickness was measured using a micrometer screw after applying a fixed pressure.

Where [2] appears, read: of 5 lenses, left eye, 3 times a day, 30 consecutive days.

“Also recorded” adds a separate entry of the source.

Turning to `O=C(O)CCSSCCC(=O)O` [3,3′-dithiodipropionic acid, reference compound], in test [1] (setting [2]), the “Number of lenses with lens opacity grade III” value amounted to 1 and the “Number of lenses with lens opacity grade IV” value was 2. Besides, in test [1] (of 5 lenses, left eye, 3 times a day, 30 consecutive days, Grade V: opacity of lens nucleus and perinuclear cortex), the “Number of lenses with lens opacity grade V” value turned out to be 1. For the same molecule, in test [1] (of 5 lenses, left eye, 3 times a day, 30 consecutive days, Grade VI: complete opacity of lens), the “Number of lenses with lens opacity grade VI” value amounted to 1. Moreover, the “Lens thickness (deformation)” value with mice presbyopia model is reported as 1.55 ± 0.01.
Consider `C[C@H](CCCC(C)(C)O)C1CC[C@@]2(C)C3=C(CC[C@]12C)[C@@]1(C)CC[C@H](OC(=O)CCSSCCC(=O)O)C(C)(C)[C@@H]1CC3` (stereo partly drawn) [Compound 1], for which, in test [1], the “Effect compared with the core fragment compound c (Gc) group” value is listed as “significantly superior”, the “Effect compared with the core fragment compound d (Gd) group” value is “significantly superior”, the “Effect compared with the model group (MG)” value was “significantly superior” and the “Therapeutic effect on the sodium selenite-induced cataract model” value is on record as “significant therapeutic effects”. Besides, in test [1] (setting [2]), the “Number of lenses with lens opacity grade I” value amounted to 1, the “Number of lenses with lens opacity grade II” value is 2, the “Number of lenses with lens opacity grade III” value came to 1 and the “Number of lenses with lens opacity grade IV” value is 1. Besides, in the test with mice presbyopia model, the “Lens thickness (deformation)” value is 1.42 ± 0.03 and the “Therapeutic effect on elastic recovery of aged mice” value (“Therapeutic effect … of aged mice” below) is “significant therapeutic effects”. The “Therapeutic effect … of aged mice” value in the test on mice presbyopia model (listed as G1) is listed as “most significant effect”.
Consider `C[C@H](CCCC(C)(C)OC(=O)CCSSCCC(=O)O)[C@H]1CC[C@@]2(C)C3=C(CC[C@]12C)[C@@]1(C)CC[C@H](OC(=O)CCSSCCC(=O)O)C(C)(C)[C@@H]1CC3` [Compound 2], for which, in test [1], the “Effect compared with the core fragment compound c (Gc) group” value is recorded as “significantly superior”, the “Effect compared with the core fragment compound d (Gd) group” value is given as “significantly superior”, the “Effect compared with the model group (MG)” value is listed as “significantly superior” and the “Therapeutic effect on the sodium selenite-induced cataract model” value is listed as “significant therapeutic effects; also recorded: best therapeutic effect”. In test [1] (setting [2]), the “Number of lenses with lens opacity grade I” value worked out at 3, the “Number of lenses with lens opacity grade II” value is 1 and the “Number of lenses with lens opacity grade III” value is reported as 1. For the same molecule, in the test on mice presbyopia model, the “Lens thickness (deformation)” value worked out at 1.51 ± 0.02 and the “Therapeutic effect … of aged mice” value is “significant therapeutic effects”.
On to `C[C@H](CCCC(C)(C)O)[C@H]1CC[C@@]2(C)C3=C(CC[C@]12C)[C@@]1(C)CC[C@H](O)C(C)(C)[C@@H]1CC3` [Compound c, reference compound], for which, in test [1] (setting [2]), the “Number of lenses with lens opacity grade II” value came out at 2 and the “Number of lenses with lens opacity grade III” value turned out to be 3.
